In general, solubility refers to the concentration that dissolves in the medium under given conditions.

Where a name gives a salt, the structure may show the parent alone. Where only a bound is given, the exact number is not on record here.

The nature of series [1]: Solubility of AMG 176 Form 1 in water under neutral conditions. It is filed as physicochemical.
Series [2] can be described thus: Moisture sorption (DVS, VTI vapor sorption analyzer). It counts as physicochemical. As to conditions: for weight gain (moisture sorption profile): by 95% relative humidity, 25° C. The procedure: Moisture Sorption: Moisture sorption data was collected at 25° C. using a VTI vapor sorption analyzer. A sample size of approximately 4-10 mg was used in a standard platinum pan. Hygroscopicity was evaluated from 5 to 95% RH in increments of 5% RH. Data for adsorption and desorption cycles were collected. Equilibrium criteria were set at 0.001% weight change in 10 minute with a maximum equilibration time of 180 minutes.

Turning to `CO[C@H]1/C=C/C[C@H](C)[C@@H](C)S(=O)(=O)NC(=O)c2ccc3c(c2)N(C[C@@H]2CC[C@H]21)C[C@@]1(CCCc2cc(Cl)ccc21)CO3` [AMG 176 Form 1], the solubility in series [1] is under 0.1 µg/mL.

With `CO[C@H]1/C=C/C[C@H](C)[C@@H](C)S(=O)(=O)NC(=O)c2ccc3c(c2)N(C[C@@H]2CC[C@H]21)C[C@@]1(CCCc2cc(Cl)ccc21)CO3` [crystalline ammonium salt form of AMG 176], the “weight gain (moisture sorption profile)” value in series [2] was “about 1.2%”.

For `CO[C@H]1/C=C/C[C@H](C)[C@@H](C)S(=O)(=O)NC(=O)c2ccc3c(c2)N(C[C@@H]2CC[C@H]21)C[C@@]1(CCCc2cc(Cl)ccc21)CO3` [crystalline potassium salt hydrate form of AMG 176], the “weight gain (moisture sorption profile)” value in series [2] is recorded as “about 5%”. For the same compound, the “fate of the sorbed weight gain upon desorption” value in series [2] (desorption after sorption to 95% relative humidity) is given as “lost upon desorption”.
